Where two headings read alike, the source gives them in different places.
Test system: guinea pig perilymph proteome
Procedure: Animals were treated and sampled independently, and perilymph samples were stored at −80° C. and processed for proteomics analysis upon collection of all samples.
Dexamethasone Treatment of Animals. […] Twenty-two juvenile guinea pigs of either sex weighing between 150 and 300 g were obtained from a commercial vendor (Charles River Laboratories, Inc., Wilmington, Mass.).
Eight animals were assigned to the control group and were not given any treatment prior to aspiration. […] Guinea pigs were anesthetized with isoflurane gas (3.0% for induction and 1.0-3.0% for maintenance). […] The guinea pig remained under isoflurane anesthesia in a left lateral decubitus position for 30 min. The guinea pig was then allowed to recover in its cage until the aspiration procedure.
Aspiration Procedure. All guinea pigs underwent the aspiration procedure detailed below. […] All procedures were performed on the right ear. Guinea pigs were anesthetized with isoflurane gas (3.0% for induction and 1.0-3.0% for maintenance). Lidocaine was injected subcutaneously for local anesthesia. Buprenorphine sustained release (0.1 mg/kg) and meloxicam (0.5 mg/kg) were both administered subcutaneously prior to surgery for postoperative analgesia. To reduce head motion from breath cycles, head fixation was achieved using a modular 3D-printed head holder with two pointed screws placed anterior to the external auditory meatus and posterior to the orbit without piercing the skin.
A scalpel was used to create a 1 cm postauricular incision. Blunt dissection was used to expose the bulla. A 1 mm drill tip fixed onto a Stryker S2 πDrive drill (Stryker, Kalamazoo, Mich.) was used to create a small opening into the middle ear space. Additional bone was removed using forceps to enlarge the opening to 2-3 mm in diameter for optimal visualization of the RWM. A hollow microneedle, mounted onto the tip of a 2 in. long, 30 gauge, blunt small hub removable needle (Hamilton Company, Reno, Nev.), was secured onto a 10 μL Gastight Hamilton syringe (Model 1701 RN, Hamilton Company, Reno, Nev.). The syringe was mounted onto a UMP3 UltraMicroPump (World Precise Instruments, Sarasota, Fla.), and the pump was fixed to a micromanipulator. Using the micromanipulator, the mounted hollow microneedle was slowly advanced toward the RWM and the perforation was confirmed by visualization.
Using the UltraMicroPump, 1 μL of perilymph was aspirated across theRWMover 45 s. The sample was ejected into a 0.5 mL LoBind Microcentrifuge tube (Eppendorf, Hamburg, Germany) containing 2 μL of 1% protease cocktail inhibitor solution (P8340, Sigma-Aldrich, St. Louis, Mo.) in liquid chromatography/mass spectrometry grade water (Optima, ThermoFisher Scientific, Fair Lawn, N.J.) and stored at −80° C. Seventy-two hours after aspiration, animals were sacrificed with pentobarbital overdose.
Proteomics Analysis. All perilymph samples (1 μL) were stored at −80° C. and then processed as described previously. Briefly, samples were purified with a methanol chloroform protein precipitation as previously described. Proteins were resuspended in 8 M urea, 3 mM dithiothreitol (DTT), 100 mM ammonium bicarbonate in liquid chromatography/mass spectrometry grade water, reduced with dithiothreitol, and alkylated with iodoacetamide. For proteolytic digestion, samples were diluted 5-fold in 100 mM ammonium bicarbonate and then digested using sequencing grade trypsin (Promega V511) at a protease/protein ratio of 1:50 at 37° C. for 16 h as described previously. Samples were then desalted with Nest Group C18 Macrospin columns (Southborough, Mass.). Resulting peptides were analyzed by liquid chromatography/mass spectrometry as described previously.

Which results are given for C[C@@H]1C[C@H]2[C@@H]3CCC4=CC(=O)C=C[C@]4(C)[C@@]3(F)[C@@H](O)C[C@]2(C)[C@@]1(O)C(=O)COP(=O)(O)O [Dex, Dexamethasone sodium phosphate]?
number of perilymph proteins downregulated compared to control (IP Dex group): 6 proteins; number of perilymph proteins upregulated compared to control (IP Dex group): 8 proteins; number of perilymph proteins modulated compared to control (IP Dex group, of 175 proteins analysed): 14 proteins; number of perilymph proteins downregulated compared to control (IT Dex group): two; number of perilymph proteins upregulated compared to control (IT Dex group): one; number of perilymph proteins modulated compared to control (IT Dex group, of 175 proteins analysed): three; number of perilymph proteins modulated compared to control (by either IP Dex or IT Dex, overall): 15 proteins

— US20220032023A1, “ULTRA-SHARP MICRONEEDLE” (THE TRUSTEES OF COLUMBIA UNIVERSITY IN THE CITY OF NEW YORK, priority 2019, published 2022)
